Consider two molecules from patent US4694011A, “Novel 7-hydroxy-indoles” (Roussel Uclaf, priority 1985, dated 1987).

Data set [1] has as its system dopaminergic stimulating activity at the central level. In words: Rotation behavior after unilateral lesion of the nigra-striated bundle by 6-hydroxydopamine. Format: in vivo, rat. The following applies: male rats, intraperitoneal, 5 mg/kg. How it is done:
A. Rotation behavior after unilateral lesion of the nigra-striated bundle by 6-hydroxydopamine
Male rats weighing about 220 g were injured in the nigra-striated dopaminergic bundle by Ungerstedt's method [Acta physiol. Scand. 1971, Vol. 82 suppl. p. 367-69 93] modified by unilateral injection of 9.2 μg of 6-hydroxydopamine hydrochloride in solution in 4 μl of physiological solution containing 0.5 mg/ml of ascorbic acid. The test products were administered intraperitoneally and the animals treated, on average 6, were placed individually in a rotometer which enabled the counting of the number of rotations carried out by each animal in the opposite direction to the injured side.

Data set [2] deals with dopaminergic agonist action at the central level. The data set can be described thus: Stereotype behavior. The conditions noted are these: male rats, intraperitoneal, 50 mg/kg. Format: in vivo, rat. The procedure:
The tests were carried out on groups of 5 male rats weighing 150 to 180 g and each animal was placed individually in a barred cage (29×25×17 cm) containing a few wood shavings. The test product was administered intraperitoneally and the behavior of the animals was noted every half-hour for 5 hours with the rating of Halliwell et al [Brit. J. Pharmacol. 1964, Vol. 23, 330-350]. The animal was asleep (0), it was awake but immobile (1), it turned in the cage (2), it sniffed the cover (3), it licks the walls (4), it touched the wood shavings or the bars of the cage with its teeth (5), it bit the shavings or the bars of the cage (6).

For data set [3], the system named is arterial pressure. The data set can be described thus: Hypotensive activity (arterial pressure, anesthetized rats). Format: in vivo, rat (WISTAR). The following applies: male WISTAR rats anesthetized with nembutal, intravenous, 1 mg/kg. The procedure:
The hypotensive activity was studied on male rats of the WISTAR strain weighing about 300 g and anesthetized with nembutal (50 mg/kg by intraperitoneal route). The product tested was administered intravenously into the jugular vein and the carotidien arterial pressure was measured before and after administration of the product tested.

For data set [4], the system named is average arterial pressure. In words: Test for direct vasodilatory activity of vascular relaxing postsynaptic activity (demedullated rats, angiotensine II). The data set is classed as in vivo, rat (Sprague-Dawley). How it is done:
D. Test for Direct Vasodilatary Activity of Vascular Relaxing Postsynaptic-activity
Rats of the Sprague-Dawley strain weighing 320-350 g were anesthetized with pentobarbital (50 mg/kg by intraperitoneal injection) and after the positioning of a carotidien catheter to measure the arterial pressure and a jugular catheter for the injection of the test compounds and possible antagonists, the animals were demedullated with a steel rod. This rod was introduced by the right orbital orifice and descended the length of the spinal cord. The animals were then immediately placed under assisted respiration and a few minutes after the arterial pressure was stabilized, the animals received an intravenous perfusion of angiotensine II of […] to increase their average pressure by about 100 mm of mercury. After a plateau was reached, the test substance was injected intravenously every 2 minutes and in cumulated doses. The percentage drop in the average arterial pressure obtained enabled a dose-response curve to be traced reflecting the vasodilatary activity of the compound studied. The preliminary treatment of the animals with different antagonists enabled the mechanism of action of the compound to be determined. The products were tested between 0.001 and 1 mg/kg and Domperidone and propanolol were used as antagonists.

Data set [5] concerns force of cardiac contraction. In words: Positive inotropic activity. The conditions noted are these: 10 to 100 mg/kg. The data set is classed as in vivo, rat (Sprague-Dawley). How it is done:
E. Positive inotropic activity
Rats of Sprague-Dawley strain weighing 300 to 350 g were anesthetized with pentobarbital (50 mg/kg by intraperitoneal injection) and a catheter was placed in the left ventricle to measure the cardiac intraventricular pressure and the dP/dt VG (or rate of variation of the intraventricular pressure). A second arterial catheter placed in the femoral artery enabled the systemic arterial pressure and the cardiac frequency to be registered. The test products and the possible antagonists were injected by a catheter placed in a jugular vein. This model enabled the effect of various substances on the force of cardiac contraction to be evaluated in vivo as a function of the dose and the time.

Data set [6] concerns pressure responses to the electrical stimulation. In words: Presynaptic activity at the vascular level. The following applies: demedullated Sprague-Dawley rats. The data set is classed as in vivo, rat (Sprague-Dawley). The procedure: F. Presynaptic activity at the vascular level
Rats of Sprague-Dawley strain weighing 320-350 g were anesthetized with pentobarbital (50 mg/kg by intraperitoneal injection) and after insertion of a carotidien catheter to measure the arterial pressure and a jugular catheter for the injection of the test compounds, the animals were demedullated with a stainless steel rod introduced by the right orbitary orifice. This rod was insulated along its length with the exception of the last five centimeters. As soon as the medulla was destroyed, the animals were placed under assisted respiration. After a period of rest of about 20 minutes, the animals were submitted to electrical stimulations applied between the demedullation rod and a neutral electrode placed under the skin in the thigh region with impulses of 2 msec., frequency of 10 Hz and amplitude of about 20 V for 30 sec. for 5 minutes each. […] The addition of appropriate blockers and the combination of this technique with the modification of dose-response curves to vasoconstricting agents such as noradrenaline enabled the pharmacological profile of the test compound to be determined.

The test system of data set [7] is mice. In words: Acute toxicity. The data set is classed as in vivo. The following applies: oral administration. How it is done: The lethal doses LD50 of the different compounds tested were evaluated after oral administration to mice and LD0 is the maximum dose not causing any mortality in 8 days.
Setting [8] is: anesthetized Sprague-Dawley rats, jugular vein.

Structures are written as SMILES. A value given as a limit tells only on which side of the number the result lay.

Consider `Br.O=C1Cc2c(C3CCCNC3)ccc(O)c2N1` (stereo not shown) [Example 3, 1,3-dihydro-7-hydroxy-4-(3-piperidinyl)-2H-indol-2-one hydrobromide], for which the “central dopaminergic stimulating activity (conclusion from rotation test)” value in data set [1] is recorded as “substantially deprived of dopaminergic stimulating activity at the central level”. In addition, the “rotations in the opposite direction to the injured side” value in data set [1] (at least ninety minutes) is “practically no rotations”. Besides, in data set [2], the “central dopaminergic agonist action (conclusion from stereotype test)” value is “substantially deprived of dopaminergic agonist action at the central level”. Also, the stereotype movements result in data set [2] (noted every half-hour for 5 hours) is “practically no stereotype movements”. The “effect on carotidien arterial pressure” value in data set [3] is “slight effect on the arterial pressure”. Moreover, the “origin of the vasodilator effect (mechanism)” value in data set [4] (Domperidone and propanolol used as antagonists) is “of dopaminergic and α-adrenergic origin”. Besides, the minimal effective dose in data set [4] (Rattus norvegicus, demedullated Sprague-Dawley rats, angiotensine II perfusion, intravenous cumulated doses, tested between 0.001 and 1 mg/kg, read-out: dose from which a dose dependent vasodilator effect occurs) is at least 0.001 mg/kg. Moreover, in data set [5], the “positive inotropic effect (conclusion)” value is on record as “possessed positive inotropic properties”. Moreover, in data set [5] (with propanolol), the “blockade by propanolol of the increase of dP/dt and maximal ventricular pressure” value is “not otherwise blocked by propanolol”. In addition, in data set [5] (setting [8]), the “dP/dt (rate of variation of the intraventricular pressure)” value was “increase of the dP/dt”; the maximal ventricular pressure result is “increase of the dP/dt and of the maximal ventricular pressure”. Also, the “site of action linked to the reduction of the responses” value in data set [6] is “essentially post-synaptic activity”. Moreover, the “pressure responses to the electrical stimulation” value in data set [6] (intravenous) is “reduction of the responses”. The “blockade by sulpiride of the reduction of the responses” value in data set [6] (with sulpiride) was “not blocked by sulpiride”. The “LD0 (maximum dose not causing any mortality in 8 days)” value in data set [7] is recorded as 400 mg/kg.

On to `Br.CCCN1CCCC(c2ccc(O)c3c2CC(=O)N3)C1` (stereo not shown) [Example 4, 1,3-dihydro-7-hydroxy-4-(1-propyl-3-piperidinyl)-2H-indol-2-one hydrobromide], for which the “LD0 (maximum dose not causing any mortality in 8 days)” value in data set [7] is on record as 400 mg/kg.
